The record followed here is article PMC10758095, “Selectively targeting BCL6 using a small molecule inhibitor is a potential therapeutic strategy for ovarian cancer” (International Journal of Biological Sciences, 2024).

For this test, the target named is T1, BCL6 (Homo sapiens, UniProt P41182).
T1 construct: BTB domain
The test can be described thus: SPR (also HTRF BCL6-BTB/SMRT disruption). It is filed as binding. (Time-resolved FRET reads energy transfer from a long-lived donor to a nearby acceptor.)

As for `C[C@@H]1CN(c2ncc(F)c(Nc3ccc4oc(=O)ccc4c3)n2)C[C@H](C)N1` [WK369], the Kd (as a rule, a measure of binding affinity in units of concentration) was found to be 2.24 µM.
